From ChEMBL document CHEMBL4706534, “1,2,3-Triazole-containing hybrids with potential antibacterial activity against methicillin-resistant Staphylococcus aureus (MRSA)” (Eur J Med Chem, 2020)
Values after ≈ are worked out from the molar mass of the structure shown.

How the values were obtained:
Staphylococcus aureus [1] = assay: Antibacterial activity against methicillin-resistant Staphylococcus aureus; type: functional
Staphylococcus aureus [2] = assay: Antibacterial activity against Methicillin-resistant Staphylococcus aureus KU60; type: functional
Staphylococcus aureus [3] = assay: Antibacterial activity against Methicillin-resistant Staphylococcus aureus ATCC 33591; type: functional, organism-based
Enterococcus faecalis = assay: Antibacterial activity against vancomycin susceptible Enterococcus faecalis ATCC 29212; type: functional
Enterococcus [4] = assay: Antibacterial activity against vancomycin resistant Enterococcus ATCC 51299; type: functional
Staphylococcus aureus [5] = assay: Antibacterial activity against Methicillin-resistant Staphylococcus aureus N315 incubated for 24 hrs by two fold serial dilution method; type: functional
Staphylococcus aureus [6] = assay: Antibacterial activity against Staphylococcus aureus ATCC 25923 incubated for 24 hrs by two fold serial dilution method; type: functional
Staphylococcus aureus [7] = assay: Antibacterial activity against Staphylococcus aureus ATCC 25923 by CLSI-based broth microdilution method; type: functional
Staphylococcus aureus [8] = assay: Resistance index, ratio of MIC for antibacterial activity against methicillin-resistant Staphylococcus aureus […] to MIC for antibacterial activity against methicillin-sensitive Staphylococcus aureus; type: functional
Staphylococcus aureus [9] = assay: Antibacterial activity against methicillin-resistant Staphylococcus aureus ATCC 43300 incubated for 16 to 18 hrs by CLSI based assay; type: functional; details: time 16-18 hrs
Staphylococcus aureus [10] = assay: Resistance index, ratio of MIC for antibacterial activity against Staphylococcus aureus ATCC 43300 incubated for 16 to 18 hrs by CLSI based assay to MIC for antibacterial activity against Staphylococcus aureus DSM 20231 incubated for 16 to 18 hrs by CLSI based assay; type: functional; details: time 16-18 hrs
Staphylococcus aureus [11] = assay: Antibacterial activity against Methicillin-resistant Staphylococcus aureus 1 incubated for 16 hrs by agar dilution method; type: functional
Staphylococcus aureus [12] = assay: Antibacterial activity against Methicillin-resistant Staphylococcus aureus 2 incubated for 16 hrs by agar dilution method; type: functional
Enterococcus [13] = assay: Antibacterial activity against Vancomycin-resistant enterococcus 2 incubated for 16 hrs by agar dilution method; type: functional

## COc1c(N2C[C@@H]3CCCN[C@@H]3C2)c(F)cc2c(=O)c(C(=O)O)cn(C3CC3)c12 [MOXIFLOXACIN]
Staphylococcus aureus [1]
  MIC: 8 mg/L (≈ 19.9 µM)

## O=C(C(Cl)Cl)N1CCN(c2ccc(N3C[C@H](Cn4ccnn4)OC3=O)cc2F)CC1
Staphylococcus aureus [2]
  MIC: 0.25 mg/L (≈ 0.547 µM)

## CN[C@H](CC(C)C)C(=O)N[C@@H]1Cc2ccc(c(Cl)c2)Oc2cc3cc(c2O[C@@H]2O[C@H](CO)[C@@H](O)[C@H](O)[C@H]2O[C@H]2C[C@](C)(N)[C@H](O)[C@H](C)O2)Oc2ccc(cc2Cl)[C@@H](O)[C@@H]2NC(=O)[C@H](NC(=O)[C@@H]3NC(=O)[C@H](CC(=O)O)NC1=O)c1ccc(O)c(c1)-c1c(O)cc(O)cc1[C@H](C(=O)NCCCCCc1cn(CCOCCOCCOCCNC(=O)[C@@H]3NC(=O)[C@H]4NC(=O)[C@H](NC(=O)[C@@H]5NC(=O)[C@H](CC(=O)O)NC(=O)[C@H](NC(=O)[C@@H](CC(C)C)NC)Cc6ccc(c(Cl)c6)Oc6cc5cc(c6O[C@@H]5O[C@H](CO)[C@@H](O)[C@H](O)[C@H]5O[C@H]5C[C@](C)(N)[C@H](O)[C@H](C)O5)Oc5ccc(cc5Cl)[C@H]4O)c4ccc(O)c(c4)-c4c(O)cc(O)cc43)nn1)NC2=O
Staphylococcus aureus [3]
  MIC: 0.5 mg/L (≈ 0.158 µM)
Enterococcus faecalis
  MIC: 0.5 mg/L (≈ 0.158 µM)
Enterococcus [4]
  MIC: 0.5 mg/L (≈ 0.158 µM)

## Cc1ccc2c(c1)nnn2CC(O)Cn1cnc2cc(Cl)ccc2c1=O (stereo not drawn)
Staphylococcus aureus [5]
  MIC: ≥ 64 mg/L
Staphylococcus aureus [6]
  MIC: ≥ 64 mg/L

## CC(C)NC(=N)c1ccc2[nH]c(-c3ccc(OCc4cn(CSc5ccccc5)nn4)cc3)nc2c1
Staphylococcus aureus [7]
  MIC: 8 mg/L (≈ 16.1 µM)
Staphylococcus aureus [8]
  Ratio: 0.125

## c1ccc(SCn2cc(COc3ccc(-c4nc5cc(C6=NCCN6)ccc5[nH]4)cc3)nn2)cc1
Staphylococcus aureus [7]
  MIC: 8 mg/L (≈ 16.6 µM)
Staphylococcus aureus [8]
  Ratio: 0.125

## N=C(N)NCCC[C@H](NC(=O)[C@H](Cc1c[nH]c2ccccc12)NC(=O)[C@H](CCCNC(=N)N)NC(=O)[C@H](Cc1c[nH]c2ccccc12)NC(=O)[C@@H](N)CCCNC(=N)N)C(=O)N[C@@H](Cc1c[nH]c2ccccc12)C(=O)N[C@@H](CCCCn1cc(COc2cc(OCc3cn(CCCC[C@H](NC(=O)[C@H](Cc4c[nH]c5ccccc45)NC(=O)[C@H](CCCNC(=N)N)NC(=O)[C@H](Cc4c[nH]c5ccccc45)NC(=O)[C@H](CCCNC(=N)N)NC(=O)[C@H](Cc4c[nH]c5ccccc45)NC(=O)[C@@H](N)CCCNC(=N)N)C(N)=O)nn3)cc(OCc3cn(CCCC[C@H](NC(=O)[C@H](Cc4c[nH]c5ccccc45)NC(=O)[C@H](CCCNC(=N)N)NC(=O)[C@H](Cc4c[nH]c5ccccc45)NC(=O)[C@H](CCCNC(=N)N)NC(=O)[C@H](Cc4c[nH]c5ccccc45)NC(=O)[C@@H](N)CCCNC(=N)N)C(N)=O)nn3)c2)nn1)C(N)=O
Staphylococcus aureus [9]
  MIC: 2.7 µM (≈ 10.4 µg/mL)
Staphylococcus aureus [10]
  Ratio: 0.5

## CC(C)NC(=N)c1ccc2[nH]c(-c3ccc(OCc4cn(-c5ccccc5)nn4)cc3)nc2c1
Staphylococcus aureus [7]
  MIC: 8 mg/L (≈ 17.7 µM)
Staphylococcus aureus [8]
  Ratio: 0.125

## O=C(c1ccccc1)N1CCN(c2ccc(N3C[C@H](Cn4ccnn4)OC3=O)cc2F)CC1
Staphylococcus aureus [2]
  MIC: 0.25 mg/L (≈ 0.555 µM)

## CN[C@H](CC(C)C)C(=O)N[C@@H]1Cc2ccc(c(Cl)c2)Oc2cc3cc(c2O[C@@H]2O[C@H](CO)[C@@H](O)[C@H](O)[C@H]2O[C@H]2C[C@](C)(N)[C@H](O)[C@H](C)O2)Oc2ccc(cc2Cl)[C@@H](O)[C@@H]2NC(=O)[C@H](NC(=O)[C@@H]3NC(=O)[C@H](CC(=O)O)NC1=O)c1ccc(O)c(c1)-c1c(O)cc(O)cc1[C@H](C(=O)NCCCc1cn(CCOCCOCCOCCNC(=O)[C@@H]3NC(=O)[C@H]4NC(=O)[C@H](NC(=O)[C@@H]5NC(=O)[C@H](CC(=O)O)NC(=O)[C@H](NC(=O)[C@@H](CC(C)C)NC)Cc6ccc(c(Cl)c6)Oc6cc5cc(c6O[C@@H]5O[C@H](CO)[C@@H](O)[C@H](O)[C@H]5O[C@H]5C[C@](C)(N)[C@H](O)[C@H](C)O5)Oc5ccc(cc5Cl)[C@H]4O)c4ccc(O)c(c4)-c4c(O)cc(O)cc43)nn1)NC2=O
Staphylococcus aureus [3]
  MIC: 0.5 mg/L (≈ 0.16 µM)
Enterococcus faecalis
  MIC: 0.5 mg/L (≈ 0.16 µM)
Enterococcus [4]
  MIC: 0.5 mg/L (≈ 0.16 µM)

## N=C(N)NCCC[C@H](NC(=O)[C@H](Cc1c[nH]c2ccccc12)NC(=O)[C@H](CCCNC(=N)N)NC(=O)[C@H](Cc1c[nH]c2ccccc12)NC(=O)[C@@H](N)CCCNC(=N)N)C(=O)N[C@@H](Cc1c[nH]c2ccccc12)C(=O)N[C@@H](CCCCn1cc(COc2ccccc2)nn1)C(N)=O
Staphylococcus aureus [9]
  MIC: 2.7 µM (≈ 3.59 µg/mL)
Staphylococcus aureus [10]
  Ratio: 0.5

## CC(C)(C)C(=O)N1CCN(c2ccc(N3C[C@H](Cn4ccnn4)OC3=O)cc2F)CC1
Staphylococcus aureus [2]
  MIC: 0.25 mg/L (≈ 0.581 µM)

## CC(C)NC(=N)c1ccc2[nH]c(-c3ccc(OCc4cn(-c5ccccc5Cl)nn4)cc3)nc2c1
Staphylococcus aureus [7]
  MIC: 8 mg/L (≈ 16.5 µM)
Staphylococcus aureus [8]
  Ratio: 0.125

## C#CCOCCOCCOCc1cn([C@H](CC(C)C)C(=O)N[C@@H]2Cc3ccc(c(Cl)c3)Oc3cc4cc(c3O[C@@H]3O[C@H](CO)[C@@H](O)[C@H](O)[C@H]3O[C@H]3C[C@](C)(NCCCCCCCc5ccccc5)[C@H](O)[C@H](C)O3)Oc3ccc(cc3Cl)[C@@H](O)[C@@H]3NC(=O)[C@H](NC(=O)[C@@H]4NC(=O)[C@H](CC(=O)O)NC2=O)c2ccc(O)c(c2)-c2c(O)cc(O)cc2[C@H](C(=O)O)NC3=O)nn1
Staphylococcus aureus [11]
  MIC: 25 mg/L (≈ 13.9 µM)
Staphylococcus aureus [12]
  MIC: 12.5 mg/L (≈ 6.93 µM)

## O=c1c2ccc(F)cc2ncn1CC(O)Cn1nnc2ccccc21 (stereo not drawn)
Staphylococcus aureus [5]
  MIC: ≥ 64 mg/L
Staphylococcus aureus [6]
  MIC: ≥ 64 mg/L

## CN[C@H](CC(C)C)C(=O)N[C@@H]1Cc2ccc(c(Cl)c2)Oc2cc3cc(c2O[C@@H]2O[C@H](CO)[C@@H](O)[C@H](O)[C@H]2O[C@H]2C[C@](C)(N)[C@H](O)[C@H](C)O2)Oc2ccc(cc2Cl)[C@@H](O)[C@@H]2NC(=O)[C@H](NC(=O)[C@@H]3NC(=O)[C@H](CC(=O)O)NC1=O)c1ccc(O)c(c1)-c1c(O)cc(O)cc1[C@H](C(=O)NCCOCCOCCOCCn1cc(CCNC(=O)[C@@H]3NC(=O)[C@H]4NC(=O)[C@H](NC(=O)[C@@H]5NC(=O)[C@H](CC(=O)O)NC(=O)[C@H](NC(=O)[C@@H](CC(C)C)NC)Cc6ccc(c(Cl)c6)Oc6cc5cc(c6O[C@@H]5O[C@H](CO)[C@@H](O)[C@H](O)[C@H]5O[C@H]5C[C@](C)(N)[C@H](O)[C@H](C)O5)Oc5ccc(cc5Cl)[C@H]4O)c4ccc(O)c(c4)-c4c(O)cc(O)cc43)nn1)NC2=O
Staphylococcus aureus [3]
  MIC: 0.5 mg/L (≈ 0.16 µM)
Enterococcus faecalis
  MIC: 0.5 mg/L (≈ 0.16 µM)
Enterococcus [4]
  MIC: 0.5 mg/L (≈ 0.16 µM)

## CC(C)C[C@H](C(=O)N[C@@H]1Cc2ccc(c(Cl)c2)Oc2cc3cc(c2O[C@@H]2O[C@H](CO)[C@@H](O)[C@H](O)[C@H]2O[C@H]2C[C@](C)(NCCCCCCCc4ccccc4)[C@H](O)[C@H](C)O2)Oc2ccc(cc2Cl)[C@@H](O)[C@@H]2NC(=O)[C@H](NC(=O)[C@@H]3NC(=O)[C@H](CC(=O)O)NC1=O)c1ccc(O)c(c1)-c1c(O)cc(O)cc1[C@H](C(=O)O)NC2=O)n1cc(COc2ccc(-c3ccc(OCc4cn([C@H](CC(C)C)C(=O)N[C@@H]5Cc6ccc(c(Cl)c6)Oc6cc7cc(c6O[C@@H]6O[C@H](CO)[C@@H](O)[C@H](O)[C@H]6O[C@H]6C[C@](C)(NCCCCCCCc8ccccc8)[C@H](O)[C@H](C)O6)Oc6ccc(cc6Cl)[C@@H](O)[C@@H]6NC(=O)[C@H](NC(=O)[C@@H]7NC(=O)[C@H](CC(=O)O)NC5=O)c5ccc(O)c(c5)-c5c(O)cc(O)cc5[C@H](C(=O)O)NC6=O)nn4)cc3)cc2)nn1
Staphylococcus aureus [11]
  MIC: 12.5 mg/L (≈ 3.57 µM)
Staphylococcus aureus [12]
  MIC: 12.5 mg/L (≈ 3.57 µM)
Enterococcus [13]
  MIC: 25 mg/L (≈ 7.14 µM)

## O=c1c2ccc(Cl)cc2ncn1CC(O)Cn1nnc2ccccc21 (stereo not drawn)
Staphylococcus aureus [5]
  MIC: ≥ 64 mg/L
Staphylococcus aureus [6]
  MIC: ≥ 64 mg/L

## N=C(N)NCCC[C@H](NC(=O)[C@H](Cc1c[nH]c2ccccc12)NC(=O)[C@H](CCCNC(=N)N)NC(=O)[C@H](Cc1c[nH]c2ccccc12)NC(=O)[C@@H](N)CCCNC(=N)N)C(=O)N[C@@H](Cc1c[nH]c2ccccc12)C(=O)N[C@@H](CCCCn1cc(COc2cccc(OCc3cn(CCCC[C@H](NC(=O)[C@H](Cc4c[nH]c5ccccc45)NC(=O)[C@H](CCCNC(=N)N)NC(=O)[C@H](Cc4c[nH]c5ccccc45)NC(=O)[C@H](CCCNC(=N)N)NC(=O)[C@H](Cc4c[nH]c5ccccc45)NC(=O)[C@@H](N)CCCNC(=N)N)C(N)=O)nn3)c2)nn1)C(N)=O
Staphylococcus aureus [9]
  MIC: 2.7 µM (≈ 6.97 µg/mL)
Staphylococcus aureus [10]
  Ratio: 0.5

## CN[C@H](CC(C)C)C(=O)N[C@@H]1Cc2ccc(c(Cl)c2)Oc2cc3cc(c2O[C@@H]2O[C@H](CO)[C@@H](O)[C@H](O)[C@H]2O[C@H]2C[C@](C)(N)[C@H](O)[C@H](C)O2)Oc2ccc(cc2Cl)[C@@H](O)[C@@H]2NC(=O)[C@H](NC(=O)[C@@H]3NC(=O)[C@H](CC(=O)O)NC1=O)c1ccc(O)c(c1)-c1c(O)cc(O)cc1[C@H](C(=O)NCCCCc1cn(CCOCCOCCOCCNC(=O)[C@@H]3NC(=O)[C@H]4NC(=O)[C@H](NC(=O)[C@@H]5NC(=O)[C@H](CC(=O)O)NC(=O)[C@H](NC(=O)[C@@H](CC(C)C)NC)Cc6ccc(c(Cl)c6)Oc6cc5cc(c6O[C@@H]5O[C@H](CO)[C@@H](O)[C@H](O)[C@H]5O[C@H]5C[C@](C)(N)[C@H](O)[C@H](C)O5)Oc5ccc(cc5Cl)[C@H]4O)c4ccc(O)c(c4)-c4c(O)cc(O)cc43)nn1)NC2=O
Staphylococcus aureus [3]
  MIC: 0.5 mg/L (≈ 0.159 µM)
Enterococcus faecalis
  MIC: 0.5 mg/L (≈ 0.159 µM)
Enterococcus [4]
  MIC: 0.5 mg/L (≈ 0.159 µM)

## Cc1ccc2c(c1)nnn2CC(O)Cn1cnc2cc(F)ccc2c1=O (stereo not drawn)
Staphylococcus aureus [5]
  MIC: ≥ 64 mg/L
Staphylococcus aureus [6]
  MIC: ≥ 64 mg/L
